Consider 25 compounds from patent US10988477B2 (Merck Patent GmbH, priority 2018, dated 2021).

Where only a bound is given, the exact number is not on record here.

One assay has as its target GCN2 kinase (Homo sapiens, UniProt Q9P2K8). The assay is described as follows: GCN2 enzyme inhibition assay (Transcreener ADP2 fluorescence polarization). In kind it is biochemical. Conditions: Enzyme activity for compounds of Formula IV; Ki(app), 280 μM ATP, 25° C. In a few lines: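 Run at 25 °C in 25 mM Tris-HCl pH 7.5, 50 mM NaCl, 10 mM MgCl2, 1 mM DTT with 4 nM GCN2, 280 μM ATP and 200 μM (RS)7 peptide; compound (0–8 μM final) preincubated 10 min, reaction 1 h. ADP read by antibody/tracer FP; IC50 and Ki(app) from tight-binding fit.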
On the technique in general: In fluorescence polarisation assays a small probe gives low polarisation when free and higher when bound to something large.

In assay [1] the target is intracellular GCN2 (phosphorylation of the GCN2 substrate eIF2α) (Homo sapiens, UniProt Q9P2K8). Briefly: GCN2 cellular inhibition assay (AlphaScreen SureFire P-eIF2α Ser51, borrelidin-treated U2OS cells). It is filed as cell-based. The conditions noted are these: compounds of Formula IV; biomarker assay, phosphorylated eIF2α Ser51 in borrelidin-treated U2OS cells. The method, boiled down:
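Borrelidin at 10 μM is added to U2OS cells immediately after compound (4-fold dilution series, 40 μM top final) for 1 h at 37 °C. Phosphorylated eIF2α Ser51 in lysates is quantified by AlphaScreen and expressed as percent inhibition against borrelidin-stimulated controls.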
(In general: Alpha assays give light when donor and acceptor beads are brought close together.)

Usually IC50 stands for the concentration that inhibits the measured activity by half. Lower therefore signals greater potency in that assay.

Chain of intracellular GCN2 (phosphorylation of the GCN2 substrate eIF2α) (Q9P2K8 whole entry): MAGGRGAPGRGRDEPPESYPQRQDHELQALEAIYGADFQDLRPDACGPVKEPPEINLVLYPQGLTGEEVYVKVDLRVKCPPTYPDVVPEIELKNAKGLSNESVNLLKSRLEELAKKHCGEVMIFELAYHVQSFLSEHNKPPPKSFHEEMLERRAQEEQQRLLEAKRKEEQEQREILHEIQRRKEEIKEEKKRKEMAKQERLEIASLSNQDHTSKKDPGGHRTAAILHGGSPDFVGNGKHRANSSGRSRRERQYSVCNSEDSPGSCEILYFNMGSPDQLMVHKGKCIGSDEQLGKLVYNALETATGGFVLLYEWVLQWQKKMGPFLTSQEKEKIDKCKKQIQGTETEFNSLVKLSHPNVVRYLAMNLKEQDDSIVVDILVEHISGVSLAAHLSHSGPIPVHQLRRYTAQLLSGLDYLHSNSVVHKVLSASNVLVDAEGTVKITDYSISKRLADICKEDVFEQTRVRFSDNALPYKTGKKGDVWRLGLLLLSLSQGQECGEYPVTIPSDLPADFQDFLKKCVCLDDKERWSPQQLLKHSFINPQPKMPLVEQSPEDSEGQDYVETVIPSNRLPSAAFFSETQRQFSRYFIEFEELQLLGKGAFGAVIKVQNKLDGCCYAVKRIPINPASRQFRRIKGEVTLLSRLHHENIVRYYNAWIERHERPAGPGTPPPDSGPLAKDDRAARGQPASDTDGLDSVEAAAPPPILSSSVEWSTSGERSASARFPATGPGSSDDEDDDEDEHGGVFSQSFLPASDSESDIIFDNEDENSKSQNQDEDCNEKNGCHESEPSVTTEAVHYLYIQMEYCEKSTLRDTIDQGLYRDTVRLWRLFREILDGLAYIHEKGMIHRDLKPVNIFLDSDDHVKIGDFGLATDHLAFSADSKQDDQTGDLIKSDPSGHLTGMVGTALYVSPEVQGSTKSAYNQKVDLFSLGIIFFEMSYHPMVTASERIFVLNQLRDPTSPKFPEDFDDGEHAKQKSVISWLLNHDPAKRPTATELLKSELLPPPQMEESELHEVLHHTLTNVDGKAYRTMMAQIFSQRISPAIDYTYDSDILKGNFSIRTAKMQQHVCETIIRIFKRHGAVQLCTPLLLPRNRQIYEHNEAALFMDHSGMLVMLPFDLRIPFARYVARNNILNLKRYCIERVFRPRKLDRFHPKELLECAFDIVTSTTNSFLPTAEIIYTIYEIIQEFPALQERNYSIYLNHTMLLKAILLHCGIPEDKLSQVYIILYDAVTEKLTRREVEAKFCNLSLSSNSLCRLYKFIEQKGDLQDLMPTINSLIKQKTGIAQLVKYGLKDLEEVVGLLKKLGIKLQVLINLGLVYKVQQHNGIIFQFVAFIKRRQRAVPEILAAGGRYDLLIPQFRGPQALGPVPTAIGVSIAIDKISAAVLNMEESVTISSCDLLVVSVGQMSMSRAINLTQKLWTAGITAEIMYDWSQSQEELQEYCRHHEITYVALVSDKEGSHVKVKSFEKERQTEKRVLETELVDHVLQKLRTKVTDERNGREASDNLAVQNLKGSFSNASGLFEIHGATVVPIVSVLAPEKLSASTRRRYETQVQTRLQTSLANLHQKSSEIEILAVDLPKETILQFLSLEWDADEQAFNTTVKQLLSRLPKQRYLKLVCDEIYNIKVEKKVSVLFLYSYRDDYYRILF
Chain of GCN2 kinase (Q9P2K8 whole entry): as above

Turning to `Cc1nc(C2CCCN(c3ccnc(-c4cnc5cnc(Br)cn45)n3)C2)c[nH]1` (single isomer, unassigned) [IV-374, 6-Bromo-3-(4-(3-(2-methyl-1H-imidazol-4-yl)piperidin-1-yl)pyrimidin-2-yl)imidazo[1,2-a]pyrazine], the Ki at GCN2 kinase fell in the range of 10 to 100 nM. The IC50 in assay [1] was 500 to 5000 nM.

As to `Cc1nc(C2CCCN(c3ccnc(-c4cnc5cnc(Br)cn45)n3)C2)c[nH]1` (single isomer, unassigned) [IV-375, 6-Bromo-3-(4-(3-(2-methyl-1H-imidazol-4-yl)piperidin-1-yl)pyrimidin-2-yl)imidazo[1,2-a]pyrazine], the Ki on GCN2 kinase was less than 10 nM. The compound also registered an IC50 in assay [1] of less than 500 nM.

For `CC1CN(c2ccnc(-c3cnc4cnc(Br)cn34)n2)C(C)C(c2c[nH]cn2)N1` (single isomer, unassigned) [IV-376, 3-(4-(3-(1H-Imidazol-4-yl)-2,5-dimethylpiperazin-1-yl)pyrimidin-2-yl)-6-bromoimidazo[1,2-a]pyrazine], the Ki at GCN2 kinase was less than 10 nM. Besides, the IC50 in assay [1] was in the range of 500 to 5000 nM.

For `CC1CN(c2ccnc(-c3cnc4cnc(Br)cn34)n2)C(C)C(c2c[nH]cn2)N1` (single isomer, unassigned) [IV-377, 3-(4-(3-(1H-Imidazol-4-yl)-2,5-dimethylpiperazin-1-yl)pyrimidin-2-yl)-6-bromoimidazo[1,2-a]pyrazine], the Ki at GCN2 kinase fell in the range of 100 to 1000 nM. The compound also yielded a concentration for half-maximal inhibition (IC50) in assay [1] of 500 to 5000 nM.

For the compound `CS(C)(=O)=NC1CC(c2cn[nH]c2)CN(c2ccnc(-c3cnc4cnc(C(F)(F)F)cn34)n2)C1` (single isomer, unassigned) [IV-399, ((5-(1H-Pyrazol-4-yl)-1-(2-(6-(trifluoromethyl)imidazo[1,2-a]pyrazin-3-yl)pyrimidin-4-yl)piperidin-3-yl)imino)dimethyl-λ^6-sulfanone], the Ki at GCN2 kinase was less than 10 nM. The compound also came in with an IC50 in assay [1] of 500 to 5000 nM.

In the case of `CS(C)(=O)=NC1CC(c2cn[nH]c2)CN(c2ccnc(-c3cnc4cnc(C(F)(F)F)cn34)n2)C1` (single isomer, unassigned) [IV-400, ((5-(1H-Pyrazol-4-yl)-1-(2-(6-(trifluoromethyl)imidazo[1,2-a]pyrazin-3-yl)pyrimidin-4-yl)piperidin-3-yl)imino)dimethyl-λ^6-sulfanone], the Ki at GCN2 kinase was 10 to 100 nM. The IC50 in assay [1] was more than 5000 nM.

`CCN1CCN(c2ccnc(-c3cnc4cnc(Br)cn34)n2)[C@@H](C)[C@H]1c1cn[nH]c1` (single isomer, unassigned) [IV-401, Cis-6-Bromo-3-(4-(4-ethyl-2-methyl-3-(1H-pyrazol-4-yl)piperazin-1-yl)pyrimidin-2-yl)imidazo[1,2-a]pyrazine] gave a Ki on GCN2 kinase of 10 to 100 nM. In addition, the IC50 in assay [1] lay in the range of 500 to 5000 nM.

`CCN1CCN(c2ccnc(-c3cnc4cnc(Br)cn34)n2)[C@@H](C)[C@H]1c1cn[nH]c1` (single isomer, unassigned) [IV-402, Cis-6-Bromo-3-(4-(4-ethyl-2-methyl-3-(1H-pyrazol-4-yl)piperazin-1-yl)pyrimidin-2-yl)imidazo[1,2-a]pyrazine] displayed a Ki on GCN2 kinase of less than 10 nM. For the same compound, the IC50 in assay [1] is less than 500 nM.

Consider `CC1CN(c2nccc(-c3cnc4cnc(Br)cn34)n2)C(C)C(c2cn[nH]c2)N1` (single isomer, unassigned) [IV-403, 6-Bromo-3-(2-(2,5-dimethyl-3-(1H-pyrazol-4-yl)piperazin-1-yl)pyrimidin-4-yl)imidazo[1,2-a]pyrazine], for which the Ki at GCN2 kinase is less than 10 nM. Also, the concentration for half-maximal inhibition (IC50) in assay [1] is less than 500 nM.

On to `CC1CN(c2nccc(-c3cnc4cnc(Br)cn34)n2)C(C)C(c2cn[nH]c2)N1` (single isomer, unassigned) [IV-404, 6-Bromo-3-(2-(2,5-dimethyl-3-(1H-pyrazol-4-yl)piperazin-1-yl)pyrimidin-4-yl)imidazo[1,2-a]pyrazine], for which the Ki at GCN2 kinase is 100 to 1000 nM. In assay [1], this compound showed an IC50 of 500 to 5000 nM.

In turn, `CC1CN(c2ccnc(-c3cnc4cnc(C(F)(F)F)cn34)n2)CC(c2c[nH]cn2)O1` (single isomer, unassigned) [IV-405, 2-(1H-Imidazol-4-yl)-6-methyl-4-(2-(6-(trifluoromethyl)imidazo[1,2-a]pyrazin-3-yl)pyrimidin-4-yl)morpholine] had a Ki at GCN2 kinase of less than 10 nM. In assay [1], this compound returned an IC50 of less than 500 nM.

Regarding `CC1CN(c2ccnc(-c3cnc4cnc(C(F)(F)F)cn34)n2)CC(c2c[nH]cn2)O1` (single isomer, unassigned) [IV-406, 2-(1H-Imidazol-4-yl)-6-methyl-4-(2-(6-(trifluoromethyl)imidazo[1,2-a]pyrazin-3-yl)pyrimidin-4-yl)morpholine], at GCN2 kinase, the Ki was 10 to 100 nM. Moreover, in assay [1], the IC50 is more than 5000 nM.

At GCN2 kinase, `CC1CN(c2nccc(-c3cnc4cnc(Cl)cn34)n2)C(C)C(c2cn[nH]c2)N1` (single isomer, unassigned) [IV-407, 6-Chloro-3-(2-(2,5-dimethyl-3-(1H-pyrazol-4-yl)piperazin-1-yl)pyrimidin-4-yl)imidazo[1,2-a]pyrazine] yielded a Ki of less than 10 nM. The IC50 in assay [1] is 500 to 5000 nM.

`CC1CN(c2nccc(-c3cnc4cnc(Cl)cn34)n2)C(C)C(c2cn[nH]c2)N1` (single isomer, unassigned) [IV-408, 6-Chloro-3-(2-(2,5-dimethyl-3-(1H-pyrazol-4-yl)piperazin-1-yl)pyrimidin-4-yl)imidazo[1,2-a]pyrazine] returned a Ki at GCN2 kinase of 100 to 1000 nM. Besides, the 50% inhibitory concentration (IC50) in assay [1] is more than 5000 nM.

On to `CC1C(c2cn[nH]c2)NCCN1c1ccnc(-c2cnc3cnc(Br)cn23)n1` (single isomer, unassigned) [IV-413, 6-Bromo-3-(4-(2-methyl-3-(1H-pyrazol-4-yl)piperazin-1-yl)pyrimidin-2-yl)imidazo[1,2-a]pyrazine], for which the Ki on GCN2 kinase was in the range of 10 to 100 nM. The compound also gave an IC50 in assay [1] of 500 to 5000 nM.

`CC1C(c2cn[nH]c2)NCCN1c1ccnc(-c2cnc3cnc(Br)cn23)n1` (single isomer, unassigned) [IV-414, 6-Bromo-3-(4-(2-methyl-3-(1H-pyrazol-4-yl)piperazin-1-yl)pyrimidin-2-yl)imidazo[1,2-a]pyrazine]: the Ki at GCN2 kinase is less than 10 nM. This compound also had an IC50 in assay [1] of less than 500 nM.

`CC1C(c2cn[nH]c2)CCCN1c1ccnc(-c2cnc3cnc(C(F)(F)F)cn23)n1` (single isomer, unassigned) [IV-419, 3-(4-(2-Methyl-3-(1H-pyrazol-4-yl)piperidin-1-yl)pyrimidin-2-yl)-6-(trifluoromethyl)imidazo[1,2-a]pyrazine] had a Ki at GCN2 kinase of 100 to 1000 nM. This compound also yielded an IC50 in assay [1] of 500 to 5000 nM.

`CC1C(c2cn[nH]c2)CCCN1c1ccnc(-c2cnc3cnc(C(F)(F)F)cn23)n1` (single isomer, unassigned) [IV-420, 3-(4-(2-Methyl-3-(1H-pyrazol-4-yl)piperidin-1-yl)pyrimidin-2-yl)-6-(trifluoromethyl)imidazo[1,2-a]pyrazine] displayed a Ki at GCN2 kinase of less than 10 nM. In assay [1], this compound came in with an IC50 of less than 500 nM.

On GCN2 kinase, `CC1CN(c2ccnc(-c3cnc4cnc(C(F)(F)F)cn34)n2)C(C)C(c2cn[nH]c2)O1` (single isomer, unassigned) [IV-450, 3,6-Dimethyl-2-(1H-pyrazol-4-yl)-4-(2-(6-(trifluoromethyl)imidazo[1,2-a]pyrazin-3-yl)pyrimidin-4-yl)morpholine] yielded a Ki of 100 to 1000 nM. In assay [1], this compound returned an IC50 of 500 to 5000 nM.

With `CC1CN(c2ccnc(-c3cnc4cnc(C(F)(F)F)cn34)n2)C(C)C(c2cn[nH]c2)O1` (single isomer, unassigned) [IV-451, 3,6-Dimethyl-2-(1H-pyrazol-4-yl)-4-(2-(6-(trifluoromethyl)imidazo[1,2-a]pyrazin-3-yl)pyrimidin-4-yl)morpholine], at GCN2 kinase, the Ki is less than 10 nM. The IC50 in assay [1] was less than 500 nM.

In the case of `Cc1[nH]ncc1C1CN(c2ccnc(-c3cnc4cnc(C(F)(F)F)cn34)n2)CC(C)N1` (single isomer, unassigned) [IV-458, 3-(4-(3-Methyl-5-(5-methyl-1H-pyrazol-4-yl)piperazin-1-yl)pyrimidin-2-yl)-6-(trifluoromethyl)imidazo[1,2-a]pyrazine], the Ki at GCN2 kinase lay in the range of 100 to 1000 nM. In assay [1], the 50% inhibitory concentration (IC50) is more than 5000 nM.

At GCN2 kinase, `Cc1[nH]ncc1C1CN(c2ccnc(-c3cnc4cnc(C(F)(F)F)cn34)n2)CC(C)N1` (single isomer, unassigned) [IV-459, 3-(4-(3-Methyl-5-(5-methyl-1H-pyrazol-4-yl)piperazin-1-yl)pyrimidin-2-yl)-6-(trifluoromethyl)imidazo[1,2-a]pyrazine] displayed a Ki of 10 to 100 nM. This compound showed a half-inhibitory concentration (IC50) in assay [1] of 500 to 5000 nM.

In turn, `CC1CN(c2ccnc(-c3cnc4cnc(C(F)(F)F)cn34)n2)CC(c2cn[nH]c2)N1` (single isomer, unassigned) [IV-460, 3-(4-(3-Methyl-5-(1H-pyrazol-4-yl)piperazin-1-yl)pyrimidin-2-yl)-6-(trifluoromethyl)imidazo[1,2-a]pyrazine] yielded a Ki at GCN2 kinase of 100 to 1000 nM. For the same compound, in assay [1], the IC50 lay within 500 to 5000 nM.

`CC1CN(c2ccnc(-c3cnc4cnc(C(F)(F)F)cn34)n2)CC(c2cn[nH]c2)N1` (single isomer, unassigned) [IV-461, 3-(4-(3-Methyl-5-(1H-pyrazol-4-yl)piperazin-1-yl)pyrimidin-2-yl)-6-(trifluoromethyl)imidazo[1,2-a]pyrazine]: the Ki on GCN2 kinase was 10 to 100 nM. In assay [1], this compound had an IC50 of 500 to 5000 nM.

For `Cc1[nH]ncc1C1CN(c2ccnc(-c3cnc4cnc(C(F)F)cn34)n2)CC(C)N1` (single isomer, unassigned) [IV-462, 6-(Difluoromethyl)-3-(4-(3-methyl-5-(5-methyl-1H-pyrazol-4-yl)piperazin-1-yl)pyrimidin-2-yl)imidazo[1,2-a]pyrazine], the Ki on GCN2 kinase lay in the range of 100 to 1000 nM. The IC50 in assay [1] was more than 5000 nM.
